The numbers were not newly measured in patent US20070014831A1, “Biodegradable occlusive device with moisture memory” (priority 2005, published 2007), which cites them from elsewhere.

The conditions of data set [1]: in vivo.
The conditions of data set [2]: J Biomater Sci Polymer Edn 1999;10:63-78.

In the case of `O=CCCCC=O` [glutaraldehyde], the “glutaraldehyde concentration used to crosslink materials above which a persistent foreign-body reaction occurred” value in data set [1] was “above 0.05%”. The “concentration at which cytotoxic” value in the data set with tissue culture was 10-25 ppm. Also, the “concentration at which cytotoxic in tissue culture” value with tissue culture (in tissue culture, as low as) was at least 3 ppm.
Take `COC(=O)C1=CO[C@@H](O)[C@@H]2C(CO)=CC[C@H]12` [Genipin]: the “cytotoxicity compared with glutaraldehyde” value in data set [2] was “significantly less cytotoxic than glutaraldehyde”.
